Source: patent US20260206761A1, “HETEROARYL-TRIAZOLE COMPOUNDS AS PESTICIDES” (Bayer Aktiengesellschaft, priority 2019, published 2026)

Legend:
Format in all cases: in vivo
[1] = system: Rhipicephalus microplus larvae (strain Parkhurst, resistant against synthetic pyrethroids); experiment: Rhipicephalus (Boophilus) microplus in-vitro contact test, larval cattle tick; settings: after 48 hours, read-out: activity (efficacy: larvae dead or moribund); for pest or weed control at 100 g/ha: application rate 1 pg/cm^2 (=100 g/ha); for pest or weed control at 500 g/ha: application rate 5 pg/cm^2 (=500 g/ha)
Experimental: Rhipicephalus (Boophilus) microplus—In-Vitro Contact Tests Larval Cattle Tick (Strain Parkhurst. Resistant Against Synthetic Pyrethroids)
(§1) 9 mg compound is solved in 1 mL acetone and diluted with acetone to the desired concentration. 250 μL of the test solution is filled in 25 mL glass test tubes and homogeneously distributed on the inner walls by rotation and tilting on a shaking device (2 h at 30 rpm). With a compound concentration of 900 ppm, an inner surface of 44.7 cm^2 and a homogeneous distribution, a dose of 5 μg/cm^2 is achieved.
After the solvent has evaporated, each test tube is filled with 20-50 cattle tick larvae (Rhipicephalus microplus), closed with a perforated lid and incubated in a horizontal position at 85% relative humidity and 27° C. in an incubator. After 48 hours efficacy is determined. The larvae are patted on the ground of the tubes and negative geotactic behaviour is recorded.
An efficacy of 100% means all larvae are dead or moribund; 0% means no larvae are dead or moribund.

[2] = system: adult engorged female ticks (Rhipicephalus microplus); experiment: Rhipicephalus (Boophilus) microplus injection test; settings: 168 h, egg deposition after 7 days, read-out: activity (efficacy: infertile eggs); for pest or weed control at 4 pg: application rate 4 pg/animal; for pest or weed control at 0.02 mg: application rate 20 μg/animal
Experimental: Rhipicephalus (Boophilus) microplus—Injection Test
(§2) Solvent: dimethyl sulfoxide
To produce a suitable preparation of active compound, 10 mg of active compound are dissolved in 0.5 mL solvent, and the concentrate is diluted with solvent to the desired concentration.
Five adult engorged female ticks (Rhipicephalus microplus) are injected with 1 μL compound solution into the abdomen. The ticks are transferred into replica plates and incubated in a climate chamber.
After 7 days egg deposition of fertile eggs is monitored. Eggs where fertility is not visible are stored in a climate chamber till hatching after about 42 days. An efficacy of 100% means all eggs are infertile; 0% means all eggs are fertile.

[3] = system: adult unfed cat fleas (Ctenocephalides felis); experiment: Ctenocephalides felis oral test; settings: 48 h, read-out: activity (mortality)
Experimental: Ctenocephalides felis—Oral Test
as §2
To produce a suitable preparation of active compound, 10 mg of active compound are dissolved in 0.5 mL solvent, and the concentrate is diluted with cattle blood to the desired concentration.
Approximately 20 adult unfed cat fleas (Ctenocephalides felis) are placed in flea chambers. The blood chamber, sealed with parafilm on the bottom, are filled with cattle blood supplied with compound solution and placed on the gauze covered top of the flea chamber, so that the fleas are able to suck the blood. The blood chamber is heated to 37° C. whereas the flea chamber is kept at room temperature.
After 2 days mortality in % is determined. 100% means all the fleas have been killed; 0% means none of the fleas have been killed.

[4] = system: larvae of the banded cucumber beetle (Diabrotica balteata); experiment: Diabrotica balteata spray test; settings: 168 h, after 7 days, read-out: activity (efficacy: seedlings grown); for pest or weed control at 100 g/ha: application rate 100 g/ha (=32 pg/well); for pest or weed control at 500 g/ha: application rate 500 g/ha (=160 pg/well)
Experimental: Diabrotica balteata—spray test
Solvent: 78.0 parts by weight of acetone • • 1.5 parts by weight of dimethylformamide
(§3) Emulsifier: alkylarylpolyglycol ether
To produce a suitable preparation of active compound, 1 part by weight of active compound is mixed with the stated amount of solvent, and the concentrate is diluted with water, containing an emulsifier concentration of 1000 ppm, to the desired concentration. Further test concentrations are prepared by dilution with emulsifier containing water.
Soaked wheat seeds (Triticum aestivum) are placed in a multiple well plate filled with agar and some water and are incubated for 1 day to germinate (5 seeds per well). The germinated wheat seeds are sprayed with a test solution containing the desired concentration of the active ingredient. Afterwards each unit is infected with 10-20 larvae of the banded cucumber beetle (Diabrotica balteata).
After 7 days efficacy in % is determined. 100% means all the seedlings have grown up like in the untreated, uninfected control; 0% means none of the seedlings have grown.

[5] = system: fall armyworm larvae (Spodoptera frugiperda); experiment: Spodoptera frugiperda spray test; settings: 168 h, read-out: activity (mortality)
Experimental: Spodoptera frugiperda—Spray Test
Solvent: 78.0 parts by weight acetone • 1.5 parts by weight dimethylformamide
as §3
To produce a suitable preparation of active compound, 1 part by weight of active compound is mixed with the stated amount of solvents and is diluted with water, containing an emulsifier concentration of 1000 ppm, to the desired concentration. Further test concentrations are prepared by dilution with emulsifier containing water.
Maize (Zea mays) leaf sections are sprayed with a preparation of the active ingredient of the desired concentration. Once dry, the leaf sections are infested with fall armyworm larvae (Spodoptera frugiperda).
After 7 days mortality in % is determined. 100% means all caterpillars have been killed and 0% means none of the caterpillars have been killed.

[6] = system: Aedes aegypti strain MONHEIM; experiment: Aedes aegypti test (AEDSAE surface treatment & contact assay); settings: 24 hours after contact, read-out: efficacy (mortality); for mortality at 4 mg/m2: surface concentration 4 mg/m^2, exposure 30 minutes
Experimental: Aedes aegypti Test (AEDSAE Surface Treatment & Contact Assay)
Solvent: Aceton+2000 ppm rapeseed oil methyl ester (RME)
In order to produce a sufficient, active ingredient containing solution it is necessary to solve the test compound in the solvent-mix (acetone at 2 mg/ml/RME 2000 ppm). This solution is pipetted onto a glazed tile and after evaporation of the acetone, adult mosquitoes of the species Aedes aegypti strain MONHEIM are placed onto the dried surface. The exposure time is 30 minutes. Mortality in percent (%) is determined 24 hours after contact of the insects to the treated surface. 100% mortality means that all tested insects are dead, whereas 0% means that no insect died.

[7] = system: green peach aphid (Myzus persicae); experiment: Myzus persicae oral test; settings: 120 h, application rate 4 ppm, after 5 days
Experimental: Solvent: 100 parts by weight acetone
To produce a suitable preparation of active compound, 1 part by weight of active compound is mixed with the stated amount of solvent, and the concentrate is diluted with water to the desired concentration.
50 μL compound solution is filled in microtiter plates and 150 μL IPL41 insect medium (33%+15% sugar) is added to obtain a total volume of 200 μL per well. Afterwards the plates are sealed with parafilm through which a mixed population of the green peach aphid (Myzus persicae) can suck on the compound preparation.
After 5 days mortality in % is determined. 100% means all aphids have been killed and 0% means none of the aphids have been killed.

[8] = system: adult brown dog ticks (Rhipicephalus sanguineus); experiment: Rhipicephalus sanguineus in-vitro contact test, adult brown dog ticks; settings: after 48 hours, read-out: activity (efficacy: ticks dead or moribund); for pest or weed control at 5 µg/cm2, 500 g/ha: application rate 5 μg/cm^2 (=500 g/ha); for pest or weed control at 100 g/ha: application rate 1 pg/cm^2 (=100 g/ha)
Experimental: Rhipicephalus sanguineus—In-Vitro Contact Tests with Adult Brown Dog Ticks
as §1
After the solvent has evaporated, each test tube is filled with 5-10 adult brown dog ticks (Rhipicephalus sanguineus), closed with a perforated lid and incubated in a lying position at room temperature and relative humidity. After 48 hours efficacy is determined. The ticks are patted on the ground of the tubes and are incubated on a heating plate at 45-50° C. for at most 5 minutes. Immotile or uncoordinated moving ticks, which are not able to escape the heat by climbing upwards, are marked as dead or moribund.
An efficacy of 100% means all ticks are dead or moribund; 0% means no ticks are dead or moribund.

Row | Structure (SMILES) | pest or weed control at 100 g/ha [1] | pest or weed control at 500 g/ha [1] | pest or weed control at 4 pg [2] | pest or weed control at 0.02 mg [2] | mortality at 100 ppm [3] | pest or weed control at 100 g/ha [4] | pest or weed control at 500 g/ha [4] | mortality at 500 g/ha [5] | mortality at 4 mg/m2 [6] | mortality at 100 g/ha [5] | mortality at 20 mg/m2 ([6]; surface concentration 20 mg/m^2, exposure 30 minutes) | mortality at 4 ppm [7] | pest or weed control at 5 µg/cm2, 500 g/ha [8] | pest or weed control at 100 g/ha [8]
1 | CCCc1nc([C@H](C)NC(=O)c2cc(Cl)cc(C3CC3)c2)n(-c2ccc(C#N)cn2)n1 [I-1] | 100% | 100% | 100% | 100% | 100% | 100% | 100% | 100% | 80 to 100% | – | – | – | – | –
2 | CCCc1nc([C@H](C)NC(=O)c2cc(Cl)cc(S(C)(=O)=O)c2)n(-c2ccc(C#N)cn2)n1 [I-2] | 100% | 100% | 100% | 100% | 100% | – | – | 100% | – | 83% | – | – | – | –
3 | COc1nc([C@H](C)NC(=O)c2csc(Cl)c2)n(-c2ccc(C#N)cn2)n1 [I-8] | – | – | 80% | 100% | 80% | 80% | 100% | – | 80 to 100% | – | 80 to 100% | – | – | –
4 | CCS(=O)(=O)c1cc(Cl)cc(C(=O)N[C@@H](C)c2nc(C3CC3)nn2-c2ccc(C#N)cn2)c1 [I-20] | 100% | 100% | 100% | 100% | 100% | 80% | – | – | – | 100% | – | – | – | –
5 | C[C@H](NC(=O)c1cc(Cl)cc(S(=O)(=O)C(F)F)c1)c1nc(C2CC2)nn1-c1ccc(C#N)cn1 [I-27] | 100% | 100% | 100% | – | 100% | 100% | – | – | – | 100% | – | – | – | –
6 | CC(NC(=O)c1cc(C(F)(F)F)n(C)n1)c1nc(Cl)nn1-c1ncccn1 (centres unmarked) [I-31] | 100% | 100% | 100% | 100% | 90% | – | – | – | – | – | – | 90% | – | –
7 | CC(NC(=O)c1cc(C(F)(F)F)n(C)n1)c1nc(Cl)nn1-c1ccc(C#N)cn1 (centres unmarked) [I-33] | 100% | 100% | 80% | 80% | 100% | – | – | – | – | – | – | – | 80% | –
8 | CC(NC(=O)c1cc(C(F)(F)F)n(C)n1)c1nc(Br)nn1-c1ncccn1 (centres unmarked) [I-39] | 100% | 100% | 100% | – | 100% | – | – | – | – | – | – | – | 80% | 80%
9 | C[C@H](NC(=O)c1cc(Cl)cc(C2(C#N)CC2)c1)c1ncnn1-c1nccs1 [II-5] | – | – | 100% | 100% | 100% | – | 100% | 100% | – | – | – | – | – | –
10 | Cc1nc([C@H](C)NC(=O)c2csc(Cl)c2)n(-c2cc(C#N)ccn2)n1 [II-19] | – | – | 100% | 100% | 100% | – | 100% | – | 80 to 100% | – | – | – | – | –
11 | C[C@H](NC(=O)c1cc(Cl)cc(S(C)(=O)=O)c1)c1ncnn1-c1ncc(I)s1 [II-51, 3-chloro-N-{(1S)-1-[1-(5-iodo-1,3-thiazol-2-yl)-1H-1,2,4-triazol-5-yl]ethyl}-5-(methylsulfonyl)benzamide] | 100% | 100% | 100% | 100% | 100% | 100% | – | – | – | 100% | – | – | – | 80%
12 | C[C@H](NC(=O)c1cc(C(F)(F)F)cc(S(C)(=O)=O)c1)c1ncnn1-c1ccc(S(C)(=O)=O)cn1 [II-56, 3-(methylsulfonyl)-N-[(1S)-1-{1-[5-(methylsulfonyl)pyridin-2-yl]-1H-1,2,4-triazol-5-yl}ethyl]-5-(trifluoromethyl)benzamide] | – | – | 100% | – | 100% | – | – | – | – | – | – | – | – | –
